According to the supplement of paper PMC10307832:

Legend:
Experiment in all cases: relative viability (nuclei count vs DMSO), 5 days (fraction); higher = more cells survive
[1] = compound: CC1=CC(=CC=C1)NC2=NC(=CS2)C3=CC=NC=C3 + CC(C)C[C@H](NC(=O)[C@H](Cc1ccccc1)NC(=O)c1cnccn1)B(O)O [Bortezomib] (partner 0.002 µM)
Summary of the method: (§1)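 Medians of duplicate plates are given as relative viability. That measure is the nuclei count in treated wells divided by the count in vehicle wells. Counts were taken on 4× images of lung cancer cell lines in 1536-well plates, 5 days after pin-tool dosing the day after seeding with one drug alone or a fixed anchor-drug dose plus five library-drug doses (not always all listed) in √10 steps.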

[2] = compound: CC1=CC(=CC=C1)NC2=NC(=CS2)C3=CC=NC=C3 + O=C(CCCCCCC(=O)Nc1ccccc1)NO [Vorinostat] (partner 1 µM)
Summary of the method: as §1

Masitinib + Phenformin = compound: Cc1ccc(NC(=O)c2ccc(CN3CCN(C)CC3)cc2)cc1Nc1nc(-c2cccnc2)cs1 [Masitinib] + N=C(N)NC(=N)NCCc1ccccc1 [Phenformin] (partner 250 µM)
Summary of the method: as §1

Masitinib + AZD7762 = compound: Cc1ccc(NC(=O)c2ccc(CN3CCN(C)CC3)cc2)cc1Nc1nc(-c2cccnc2)cs1 [Masitinib] + NC(=O)Nc1cc(-c2cccc(F)c2)sc1C(=O)N[C@H]1CCCNC1 [AZD7762] (partner 0.2 µM)
Summary of the method: as §1

Cell Line	relative viability ([1]; first compound 0.08 µM)	relative viability ([1]; first compound 0.253 µM)	relative viability ([1]; first compound 0.8 µM)	relative viability ([1]; first compound 2.53 µM)	relative viability ([1]; first compound 8 µM)	relative viability ([2]; first compound 0.08 µM)	relative viability ([2]; first compound 0.8 µM)	relative viability ([2]; first compound 2.53 µM)	relative viability ([2]; first compound 8 µM)	relative viability (Masitinib + Phenformin; first compound 0.01 µM)	relative viability (Masitinib + Phenformin; first compound 0.03162 µM)	relative viability (Masitinib + Phenformin; first compound 0.1 µM)	relative viability (Masitinib + Phenformin; first compound 0.3162 µM)	relative viability (Masitinib + Phenformin; first compound 1 µM)	relative viability (Masitinib + AZD7762; first compound 0.01 µM)	relative viability (Masitinib + AZD7762; first compound 0.03162 µM)	relative viability (Masitinib + AZD7762; first compound 0.1 µM)	relative viability (Masitinib + AZD7762; first compound 0.3162 µM)	relative viability (Masitinib + AZD7762; first compound 1 µM)	relative viability ([2]; first compound 0.253 µM)
ABC-1	0.316	0.265	0.328	0.315	0.32	0.944	1.44	0.963	0.377	0.204	0.24	0.228	0.209	0.234	0.711	0.901	0.743	0.493	0.801	
PC-14	0.966	0.899	0.685	0.909	0.499	0.84	0.715	0.867	0.666	0.458	0.633	0.572	0.507	0.506	0.349	0.242	0.384	0.366	0.235	0.674
A-427	0.84	1.03	0.895		0.84	0.815	0.857	0.912	0.753		0.292		0.309	0.235	0.775	0.657	0.689	0.744	0.559	0.835
NCI-H1915	0.976	0.973	0.944	0.846	0.762	0.442	0.477	0.501	0.525		0.367		0.401	0.349		0.734		0.747	0.718	0.452
LCLC-97TM1	0.715	0.478	0.476	0.365	0.463	0.558	0.623	0.601	0.988		0.458	0.407	0.492	0.446	0.235	0.288	0.229	0.191	0.229	0.741
NCI-H1734	0.906	0.874	0.941	0.919	0.36	0.725	0.782	0.752	0.681	0.423	0.423	0.493	0.379	0.339	0.595	0.515	0.599	0.599	0.545	0.77
LCLC-103H	0.995	1.12	1.05	1.1	0.635	0.635	0.679	0.667	0.567	0.339	0.348	0.306	0.344	0.293		0.885	0.566	0.831	0.791	0.69
RERF-LC-KJ	0.963	1.07	0.786	0.813	0.7	0.662	0.526	0.373	0.279	0.387	0.451	0.438	0.447	0.35	0.781	0.934	0.949	0.906	0.92	0.541
BEN	0.816	0.618	0.546	0.697	0.794	0.566	0.503	0.536	0.595	0.288		0.268	0.272	0.253	0.849	0.64	0.882	0.607	0.77	0.572
